ChEMBL document CHEMBL4706543, “Discovery of the first potent and selective αβ integrin inhibitor based on an amide-containing core” (Eur J Med Chem, 2020)
≈ marks a conversion by molar mass, not a printed value.

Legend:
[1] = target: T1, Integrin alpha-V/beta-3 (Homo sapiens, UniProt P05106+P06756); test: Inhibition of integrin alphavbeta3 (unknown origin) by fluorescence polarization assay
[2] = species: Homo sapiens; test: Selectivity ratio of IC50 for inhibition of integrin alphavbeta3 (unknown origin) to IC50 for inhibition of integrin alphavbeta5 (unknown origin)
[3] = target: T2, Integrin alpha-V/beta-5 (Homo sapiens, UniProt P06756+P18084); test: Inhibition of integrin alphavbeta5 (unknown origin) by fluorescence polarization assay
T2 sequence (P06756 31-889 limits assumed): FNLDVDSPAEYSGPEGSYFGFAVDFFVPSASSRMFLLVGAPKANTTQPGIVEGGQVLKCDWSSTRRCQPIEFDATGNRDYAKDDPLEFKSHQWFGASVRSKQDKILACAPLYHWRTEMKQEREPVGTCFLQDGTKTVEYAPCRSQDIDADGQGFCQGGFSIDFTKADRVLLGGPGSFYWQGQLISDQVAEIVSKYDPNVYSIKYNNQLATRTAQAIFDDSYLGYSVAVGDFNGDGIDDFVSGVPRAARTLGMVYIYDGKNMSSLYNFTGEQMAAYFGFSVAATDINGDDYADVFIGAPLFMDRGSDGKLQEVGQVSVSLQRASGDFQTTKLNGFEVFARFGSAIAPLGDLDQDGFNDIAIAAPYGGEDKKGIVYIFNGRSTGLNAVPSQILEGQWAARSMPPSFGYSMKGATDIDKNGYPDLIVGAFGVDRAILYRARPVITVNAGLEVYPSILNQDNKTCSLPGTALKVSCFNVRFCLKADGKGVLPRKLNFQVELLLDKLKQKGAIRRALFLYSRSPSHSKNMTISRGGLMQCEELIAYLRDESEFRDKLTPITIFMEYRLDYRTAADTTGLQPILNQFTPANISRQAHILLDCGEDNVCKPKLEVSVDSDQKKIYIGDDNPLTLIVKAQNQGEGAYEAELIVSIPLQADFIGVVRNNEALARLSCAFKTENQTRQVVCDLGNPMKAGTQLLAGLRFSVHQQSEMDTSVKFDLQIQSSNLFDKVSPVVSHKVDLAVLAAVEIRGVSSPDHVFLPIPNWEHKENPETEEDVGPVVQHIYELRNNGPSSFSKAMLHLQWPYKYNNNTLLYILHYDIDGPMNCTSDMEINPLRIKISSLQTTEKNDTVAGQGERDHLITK
T2 sequence (P06756 891-1048 limits assumed): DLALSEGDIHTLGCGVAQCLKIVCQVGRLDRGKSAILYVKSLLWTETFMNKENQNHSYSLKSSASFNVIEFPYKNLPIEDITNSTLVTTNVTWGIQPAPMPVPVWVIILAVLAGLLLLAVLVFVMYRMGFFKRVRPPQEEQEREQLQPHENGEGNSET
T2 sequence (P18084 24-799 limits assumed): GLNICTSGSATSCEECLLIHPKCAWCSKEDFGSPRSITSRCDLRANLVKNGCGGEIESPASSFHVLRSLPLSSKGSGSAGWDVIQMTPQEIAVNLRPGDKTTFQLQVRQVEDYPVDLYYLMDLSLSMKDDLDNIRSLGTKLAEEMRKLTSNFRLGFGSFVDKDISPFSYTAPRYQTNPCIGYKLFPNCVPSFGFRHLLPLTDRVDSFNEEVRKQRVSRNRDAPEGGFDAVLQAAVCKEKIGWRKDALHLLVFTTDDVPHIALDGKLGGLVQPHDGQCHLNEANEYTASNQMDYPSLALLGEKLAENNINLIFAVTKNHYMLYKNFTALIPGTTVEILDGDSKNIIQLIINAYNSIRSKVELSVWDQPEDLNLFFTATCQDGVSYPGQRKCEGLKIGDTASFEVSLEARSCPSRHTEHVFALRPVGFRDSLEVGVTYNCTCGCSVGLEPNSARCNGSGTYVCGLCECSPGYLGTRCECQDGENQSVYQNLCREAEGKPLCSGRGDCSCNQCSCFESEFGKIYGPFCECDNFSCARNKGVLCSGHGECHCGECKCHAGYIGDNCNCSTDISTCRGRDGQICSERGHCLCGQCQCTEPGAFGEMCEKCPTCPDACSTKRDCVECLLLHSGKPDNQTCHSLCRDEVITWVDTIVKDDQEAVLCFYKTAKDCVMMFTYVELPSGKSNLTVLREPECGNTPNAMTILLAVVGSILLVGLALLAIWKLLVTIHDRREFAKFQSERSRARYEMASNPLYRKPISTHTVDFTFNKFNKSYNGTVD

[4] = target: T2, Integrin alpha-V/beta-5; test: Inhibition of human alphavbeta5 integrin stably expressed in human K562 cells assessed as inhibition of cell adhesion to vitronectin incubated for 30 mins by BCECF-AM staining based fluorescence assay
[5] = target: T1, Integrin alpha-V/beta-3; test: Inhibition of human alphavbeta3 integrin stably expressed in human K562 cells assessed as inhibition of cell adhesion to GST-LAP1 incubated for 30 mins by BCECF-AM staining based fluorescence assay
[6] = Clearance in human microsomes based well stirred model; type: ADME, Microsome
[7] = Clearance in human microsomes assessed per gram tissue; type: ADME, Microsome
[8] = Lipophilicity, log D of compound by chromatographic method; type: physicochemical
[9] = Clearance in rat microsomes assessed per gram tissue; type: ADME, Microsome
[10] = Passive permeability of compound in MDCK cells; type: ADME, cell-based, Canis lupus familiaris; conditions: dog, read-out: permeability
[11] = Clearance in human hepatocytes assessed per gram tissue; type: ADME, cell-based, Hepatocyte
[12] = Clearance in rat hepatocytes assessed per gram tissue; type: ADME, cell-based, Hepatocyte
[13] = Clearance in human hepatocytes based well stirred model; type: ADME, cell-based, Hepatocyte
[14] = Clearance in rat hepatocytes based well stirred model; type: ADME, cell-based, Hepatocyte
[15] = Clearance in rat microsomes based well stirred model; type: ADME, Microsome
[16] = Solubility of the compound by CAD method; type: physicochemical
[17] = target: Integrin alpha-V/beta-6 (Homo sapiens, UniProt P06756+P18564); test: Inhibition of integrin alphavbeta6 (unknown origin) by fluorescence polarization assay; type: protein-complex assay
Integrin alpha-V/beta-6, sequence (P06756 31-889 limits assumed): as the sequence (P06756 31-889 limits assumed) above
Integrin alpha-V/beta-6, sequence (P06756 891-1048 limits assumed): as the sequence (P06756 891-1048 limits assumed) above
Integrin alpha-V/beta-6, sequence (P18564 22-788 limits assumed): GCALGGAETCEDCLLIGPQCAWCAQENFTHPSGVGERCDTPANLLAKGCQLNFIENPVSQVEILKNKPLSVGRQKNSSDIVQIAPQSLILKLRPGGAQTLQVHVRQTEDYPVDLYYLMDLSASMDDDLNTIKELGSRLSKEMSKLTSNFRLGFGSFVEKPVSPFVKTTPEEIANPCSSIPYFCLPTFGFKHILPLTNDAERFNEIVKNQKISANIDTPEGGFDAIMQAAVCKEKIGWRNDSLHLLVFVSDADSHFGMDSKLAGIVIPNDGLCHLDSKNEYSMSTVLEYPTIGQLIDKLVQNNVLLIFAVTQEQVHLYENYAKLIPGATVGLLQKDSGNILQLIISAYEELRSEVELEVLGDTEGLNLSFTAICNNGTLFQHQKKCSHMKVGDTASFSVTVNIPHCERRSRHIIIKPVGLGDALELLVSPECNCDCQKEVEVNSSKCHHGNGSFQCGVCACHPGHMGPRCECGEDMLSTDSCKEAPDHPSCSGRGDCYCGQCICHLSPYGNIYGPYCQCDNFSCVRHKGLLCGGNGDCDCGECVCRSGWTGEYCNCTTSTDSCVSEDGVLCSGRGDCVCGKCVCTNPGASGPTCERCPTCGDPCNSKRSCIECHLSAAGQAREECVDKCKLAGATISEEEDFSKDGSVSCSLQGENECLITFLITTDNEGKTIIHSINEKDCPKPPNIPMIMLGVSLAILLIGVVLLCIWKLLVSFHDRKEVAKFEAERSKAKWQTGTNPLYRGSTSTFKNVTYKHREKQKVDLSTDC

[18] = target: Integrin alpha-V/beta-1 (Homo sapiens, UniProt P05556+P06756); test: Inhibition of integrin alphavbeta1 (unknown origin) by fluorescence polarization assay; type: protein-complex assay
[19] = target: Integrin alpha-V/beta-8 (Homo sapiens, UniProt P06756+P26012); test: Inhibition of integrin alphavbeta8 (unknown origin) by fluorescence polarization assay; type: protein-complex assay
Integrin alpha-V/beta-8, sequence (P06756 31-889 limits assumed): as the sequence (P06756 31-889 limits assumed) above
Integrin alpha-V/beta-8, sequence (P06756 891-1048 limits assumed): as the sequence (P06756 891-1048 limits assumed) above
Integrin alpha-V/beta-8, sequence (P26012 43-769 limits assumed): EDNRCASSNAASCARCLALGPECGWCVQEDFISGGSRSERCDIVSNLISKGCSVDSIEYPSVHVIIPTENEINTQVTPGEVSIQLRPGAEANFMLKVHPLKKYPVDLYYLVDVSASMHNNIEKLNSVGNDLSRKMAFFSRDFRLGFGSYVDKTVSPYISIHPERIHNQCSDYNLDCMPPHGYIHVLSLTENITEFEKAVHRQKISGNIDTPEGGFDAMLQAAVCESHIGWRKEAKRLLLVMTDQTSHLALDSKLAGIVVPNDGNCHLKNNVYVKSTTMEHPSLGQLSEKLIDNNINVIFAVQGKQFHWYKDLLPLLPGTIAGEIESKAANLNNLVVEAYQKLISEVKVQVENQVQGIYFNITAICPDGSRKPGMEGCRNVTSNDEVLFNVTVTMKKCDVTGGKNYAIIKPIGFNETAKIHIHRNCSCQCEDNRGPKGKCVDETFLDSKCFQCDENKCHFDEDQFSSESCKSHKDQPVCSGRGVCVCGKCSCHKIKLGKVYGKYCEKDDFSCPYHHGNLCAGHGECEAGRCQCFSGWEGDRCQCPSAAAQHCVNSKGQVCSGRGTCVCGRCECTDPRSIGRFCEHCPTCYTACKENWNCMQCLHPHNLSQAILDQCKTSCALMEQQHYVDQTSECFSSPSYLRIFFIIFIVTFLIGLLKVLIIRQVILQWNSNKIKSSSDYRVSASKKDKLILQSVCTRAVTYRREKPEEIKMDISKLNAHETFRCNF

T1 sequence (P05106 27-788 limits assumed): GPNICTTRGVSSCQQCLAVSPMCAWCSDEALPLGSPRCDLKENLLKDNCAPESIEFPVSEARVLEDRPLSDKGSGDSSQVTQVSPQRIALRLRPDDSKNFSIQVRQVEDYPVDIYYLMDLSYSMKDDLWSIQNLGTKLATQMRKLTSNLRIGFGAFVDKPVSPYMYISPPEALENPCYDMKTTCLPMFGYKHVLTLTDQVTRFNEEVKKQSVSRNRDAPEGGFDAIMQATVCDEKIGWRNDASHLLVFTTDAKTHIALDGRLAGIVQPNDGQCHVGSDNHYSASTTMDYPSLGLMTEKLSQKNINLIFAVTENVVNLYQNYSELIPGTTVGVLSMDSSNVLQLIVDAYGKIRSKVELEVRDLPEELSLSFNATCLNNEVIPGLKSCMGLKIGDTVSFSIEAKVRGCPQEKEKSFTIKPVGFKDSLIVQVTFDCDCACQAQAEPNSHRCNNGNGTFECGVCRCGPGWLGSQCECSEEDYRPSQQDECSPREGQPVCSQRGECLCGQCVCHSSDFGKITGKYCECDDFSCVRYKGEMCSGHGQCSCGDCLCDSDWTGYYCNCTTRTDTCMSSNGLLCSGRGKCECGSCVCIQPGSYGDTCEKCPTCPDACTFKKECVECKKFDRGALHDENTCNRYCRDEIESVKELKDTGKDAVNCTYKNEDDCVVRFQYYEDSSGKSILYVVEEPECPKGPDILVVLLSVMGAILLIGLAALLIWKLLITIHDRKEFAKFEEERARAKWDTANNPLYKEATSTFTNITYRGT
T1 sequence (P06756 31-889 limits assumed): as the sequence (P06756 31-889 limits assumed) above
T1 sequence (P06756 891-1048 limits assumed): as the sequence (P06756 891-1048 limits assumed) above

| Compound | IC50 [1] [µM] | Ratio IC50 [2] | IC50 [3] [µM] | further results |
| --- | --- | --- | --- | --- |
| CN(CCCCc1ccc2c(n1)NCCC2)C(=O)[C@@H](CC(=O)O)c1ccccc1 | 5.01 | 25 | 0.2 |  |
| O=C(O)C[C@H](C(=O)N1CC[C@@H](CCc2ccc3c(n2)NCCC3)C1)c1cccc(Cl)c1 | 1 | 400 | 0.00251 | IC50 [4]: 0.126 µM; IC50 [5]: 6.31 µM |
| O=C(O)CCn1ccc2cc(OCCCNc3ccccn3)ccc21 | 0.251 | 6 | 0.0398 |  |
| O=C(O)C[C@H](C(=O)N1CC[C@@H](CCc2ccc3c(n2)NCCC3)C1)c1ccsc1 | 0.501 | 125 | 0.00398 |  |
| O=C(O)C[C@H](C(=O)N1CC[C@@H](CCc2ccc3c(n2)NCCC3)C1)c1cccc(C2CC2)c1 | 6.31 | 800 | 0.00794 | IC50 [4]: 0.316 µM; IC50 [5]: > 10 µM |
| O=C(O)C[C@H](C(=O)N1CC(CCCc2ccc3c(n2)NCCC3)C1)c1ccccc1 | 0.794 | 100 | 0.00794 |  |
| C=C(C)c1cccc([C@H](CC(=O)O)C(=O)N2CC[C@@H](CCc3ccc4c(n3)NCCC4)C2)c1 | 2.51 | 500 | 0.00501 | IC50 [4]: 0.316 µM; IC50 [5]: > 10 µM |
| Cc1ccc([C@H](CC(=O)O)C(=O)N2CC[C@@H](CCc3ccc4c(n3)NCCC4)C2)s1 | 0.158 | 25 | 0.00631 |  |
| O=C(O)C[C@H](C(=O)N1CC[C@@H](CCc2ccc3c(n2)NCCC3)C1)c1cccc(C(F)(F)F)c1 | 5.01 | 800 |  | clearance [6]: < 6 mL/min/kg; clearance [7]: < 0.4 mL/min/g; chromatographic logD [8]: 5.05; clearance [9]: < 0.46 mL/min/g; Papp [10]: 29.5 ×10⁻⁶ cm/s; CLH [11]: < 0.45 mL/min/g; CLH [12]: 14.3 mL/min/g; CLH [13]: < 7 mL/min/kg; CLH [14]: 68 mL/min/kg; IC50 [4]: 0.794 µM; clearance [15]: < 14 mL/min/kg; IC50 [5]: > 10 µM; solubility [16]: 141 µg/mL (≈ 297 µM) |
| CNc1cccc(CCOc2ccc3c(ccn3CCC(=O)O)c2)n1 | 0.0398 | 4 | 0.01 |  |
| O=C(O)C[C@H](C(=O)N1CC[C@@H](CCc2ccc3c(n2)NCCC3)C1)c1ccc(Br)cc1 | 1.26 | 200 | 0.00631 |  |
| O=C(O)C[C@H](C(=O)N1CC[C@@H](CCc2ccc3c(n2)NCCC3)C1)c1ccccc1Br | 12.6 | 10 | 1.26 |  |
| O=C(O)C[C@H](C(=O)N1CC[C@@H](CCc2ccc3c(n2)NCCC3)C1)c1cccc(O)c1 | 0.158 | 40 | 0.00398 |  |
| O=C(O)C[C@H](C(=O)N1CC[C@@H](CCc2ccc3c(n2)NCCC3)C1)c1cccc(N2CCOCC2)c1 | 2 | 160 | 0.0126 |  |
| O=C(O)C[C@H](C(=O)N1CC[C@@H](CCc2ccc3c(n2)NCCC3)C1)c1cc(Br)cc(Br)c1 | 1.58 | 320 | 0.00501 |  |
| O=C(O)C[C@H](C(=O)N1CC[C@@H](CCc2ccc3c(n2)NCCC3)C1)c1ccc(Br)s1 | 0.2 | 20 | 0.01 |  |

| Compound | IC50 [1] [µM] | Ratio IC50 [2] | IC50 [3] [µM] | further results |
| --- | --- | --- | --- | --- |
| O=C(O)C[C@H](C(=O)N1CC[C@@H](CCc2ccc3c(n2)NCCC3)C1)c1cc(Br)cs1 | 0.316 | 100 | 0.00316 |  |
| N#Cc1cccc([C@H](CC(=O)O)C(=O)N2CC[C@@H](CCc3ccc4c(n3)NCCC4)C2)c1 | 0.501 | 160 | 0.00316 | clearance [6]: < 6 mL/min/kg; clearance [7]: < 0.4 mL/min/g; chromatographic logD [8]: 3.69; clearance [9]: < 0.46 mL/min/g; Papp [10]: 5.7 ×10⁻⁶ cm/s; CLH [11]: < 0.45 mL/min/g; CLH [12]: 1.4 mL/min/g; CLH [13]: < 7 mL/min/kg; CLH [14]: 30 mL/min/kg; clearance [15]: < 14 mL/min/kg; solubility [16]: 192 µg/mL (≈ 444 µM) |
| O=C(O)C[C@H](C(=O)N1CC(CCc2ccc3c(n2)NCCC3)C1)c1ccccc1 | 3.16 | 125 | 0.0251 |  |
| O=C(O)C[C@H](C(=O)N1CC[C@@H](CCc2ccc3c(n2)NCCC3)C1)c1cccs1 | 0.794 | 160 | 0.00501 |  |
| CN1CCN(c2cccc([C@H](CC(=O)O)C(=O)N3CC[C@@H](CCc4ccc5c(n4)NCCC5)C3)c2)CC1 | 1.26 | 125 | 0.01 |  |
| O=C(O)C[C@H](C(=O)N1CC[C@@H](CCc2ccc3c(n2)NCCC3)C1)c1cccc(-c2ccccc2)c1 | 2 | 320 | 0.00631 |  |
| O=C(O)C[C@H](C(=O)N1CC[C@@H](CCc2ccc3c(n2)NCCC3)C1)c1cccc(C2CCCC2)c1 | 2.51 | 200 |  |  |
| O=C(O)C[C@H](C(=O)N1CCCC(CCc2ccc3c(n2)NCCC3)C1)c1ccccc1 (some centres not stated) | 6.31 | 13 | 0.501 |  |
| Cc1cccc([C@H](CC(=O)O)C(=O)N2CC[C@@H](CCc3ccc4c(n3)NCCC4)C2)c1 | 1.58 | 400 | 0.00398 | clearance [6]: < 6 mL/min/kg; clearance [7]: < 0.4 mL/min/g; chromatographic logD [8]: 4.16; clearance [9]: < 0.46 mL/min/g; Papp [10]: 17.6 ×10⁻⁶ cm/s; CLH [11]: < 0.45 mL/min/g; CLH [12]: 3.2 mL/min/g; CLH [13]: < 7 mL/min/kg; CLH [14]: 46 mL/min/kg; IC50 [4]: 0.0794 µM; clearance [15]: < 14 mL/min/kg; IC50 [5]: 6.31 µM; solubility [16]: 142 µg/mL (≈ 337 µM) |
| O=C(O)C[C@H](C(=O)N1CC[C@@H](CCc2ccc3c(n2)NCCC3)C1)c1cccc(C2=CCCC2)c1 | 1.26 | 160 | 0.00794 |  |
| O=C(O)C[C@H](C(=O)N1CC[C@@H](CCc2ccc3c(n2)NCCC3)C1)c1cccc(Br)c1 | 0.794 | 200 | 0.00398 |  |
| O=C(O)C[C@@H](C(=O)N1CC[C@@H](CCc2ccc3c(n2)NCCC3)C1)c1cccc(Br)c1 | 10 | 5 | 2 |  |
| O=C(O)C[C@H](C(=O)N1CC[C@@H](CCc2ccc3c(n2)NCCC3)C1)c1ccccc1 | 1 | 250 | 0.00398 | IC50 [17]: > 79.4 µM; IC50 [18]: 3.98 µM; IC50 [19]: > 79.4 µM |
| O=C(O)C[C@H](C(=O)N1CC[C@@H](CCc2ccc3c(n2)NCCC3)C1)c1cccc(N2CCNCC2)c1 | 1.58 | 100 | 0.0158 |  |
| Cc1cc(C)cc([C@H](CC(=O)O)C(=O)N2CC[C@@H](CCc3ccc4c(n3)NCCC4)C2)c1 | 3.98 | 400 | 0.01 | IC50 [4]: 0.501 µM; IC50 [5]: > 10 µM |
| Cc1csc([C@H](CC(=O)O)C(=O)N2CC[C@@H](CCc3ccc4c(n3)NCCC4)C2)c1 | 0.631 | 200 | 0.00316 |  |
